# Molecular target: p38 (Homo sapiens, UniProt Q16539)
# Assay: Protein Kinase Assay (33P incorporation from γ-[33P]ATP into GST-ATF-2)
# Type: biochemical
# Details: 2 nM p38, preincubated 20 min at 30° C.; 10 uM cold ATP, 2 uM GST-ATF2, 70 min; read-out: ACT. (Activity), IC50 category in Protein Kinase Assay
# Method: Protein Kinase Assay. The protein kinase activity of p38 was determined by measuring the incorporation of ^33P from γ-[^33P]ATP into the GST-ATF-2 substrate, amino acids 19-96 (Upstate, N.Y. USA). The reactions were carried out in a final volume of 50 μL of 24 mM Tris-HCl buffer, pH 7.5, containing 13 mM MgCl2, 12% Glycerol, 2% DMSO, 2 mM DTT, […] of γ-[^33P]ATP (1000 Ci/mmol; 1 Ci=37 GBq) (GE Healthcare, Piscataway, N.J.), 10 uM cold ATP (GE Healthcare, Piscataway, N.J.), and 2 uM GST-ATF2. Compounds were preincubated with 2 nM p38 for 20 min at 30° C.; the reactions were initiated by the addition of GST-ATF2 and ATP and incubated for 70 min at 30° C. before being stopped by the addition of 10 μL of 600 mM phosphoric acid. The phosphorylated substrate was captured on phosphocellulose 96-well plate (Millipore MAPHNOB 10), washed with 100 mM phosphoric acid, and counted in a BeckmenCoulter LS6500 liquid scintillation counter. […] (Activity).
# p38, sequence (Q16539 whole entry): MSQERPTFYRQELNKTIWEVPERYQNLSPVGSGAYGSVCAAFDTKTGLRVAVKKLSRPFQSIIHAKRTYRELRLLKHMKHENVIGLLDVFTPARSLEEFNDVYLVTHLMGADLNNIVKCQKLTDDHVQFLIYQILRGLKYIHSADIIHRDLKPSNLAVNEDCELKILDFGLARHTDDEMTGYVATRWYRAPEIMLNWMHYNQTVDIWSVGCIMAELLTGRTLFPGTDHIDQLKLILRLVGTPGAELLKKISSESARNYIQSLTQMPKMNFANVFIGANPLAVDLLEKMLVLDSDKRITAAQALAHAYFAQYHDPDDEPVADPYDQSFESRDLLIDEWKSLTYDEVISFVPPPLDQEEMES
row,Structure (SMILES),IC50
1,"Cc1ccc(NC(=O)Nc2sc(C(C)(C)C)cc2C(=O)N2CCN(C)C(=O)C2(C)C)cc1N1C(=O)CN(C)C1=O [1-(5-tert-butyl-3-(2,2,4-trimethyl-3-oxopiperazine-1-carbonyl)thiophen-2-yl)-3-(4-methyl-3-(3-methyl-2,5-dioxoimidazolidin-1-yl)phenyl)urea]",< 100 nM
2,"CCN1CCN(C(=O)c2sc(C(C)(C)C)cc2NC(=O)Nc2ccc(C)c(-c3ccc(CN4CCOCC4)nc3)c2)C(C)(C)C1=O [1-(5-tert-butyl-2-(4-ethyl-2,2-dimethyl-3-oxopiperazine-1-carbonyl)thiophen-3-yl)-3-(4-methyl-3-(6-(morpholinomethyl)pyridin-3-yl)phenyl)urea]",< 100 nM
3,"CCc1ccc(-c2cc(NC(=O)Nc3sc(C(C)(C)C)cc3C(=O)N3CCN(C)C(=O)C3(C)C)cc(F)c2C)cn1 [1-(5-tert-butyl-3-(2,2,4-trimethyl-3-oxopiperazine-1-carbonyl)thiophen-2-yl)-3-(3-(6-ethylpyridin-3-yl)-5-fluoro-4-methylphenyl)urea]",< 100 nM
4,"Cc1ccc(NC(=O)Nc2cc(C(C)(C)C)sc2C(=O)N2CCNC(=O)C2(C)C)cc1-c1ccc(CN2CCOCC2)nc1 [1-(5-tert-butyl-2-(2,2-dimethyl-3-oxopiperazine-1-carbonyl)thiophen-2-yl)-3-(4-methyl-3-(6-(morpholinomethyl)pyridin-3-yl)phenyl)urea]",< 100 nM
5,"Cc1ccc(NC(=O)Nc2cn(C(C)(C)C)nc2C(=O)N2CCNC(=O)C2(C)C)cc1-c1cccnc1 [1-(1-tert-butyl-3-(2,2-dimethyl-3-oxopiperazine-1-carbonyl)-1H-pyrazol-4-yl)-3-(4-methyl-3-(pyridin-3-yl)phenyl)urea]",< 100 nM
6,"Cc1ccc(NC(=O)Nc2sc(C(C)(C)C)cc2C(=O)N2CCN(C)C(=O)C2(C)C)cc1-c1ccc(CN2CCOCC2)cn1 [1-(5-tert-butyl-3-(2,2,4-trimethyl-3-oxopiperazine-1-carbonyl)thiophen-2-yl)-3-(4-methyl-3-(5-(morpholinomethyl)pyridin-2-yl)phenyl)urea]",< 100 nM
7,"Cc1nnc(-c2ccc(-c3cc(NC(=O)Nc4sc(C(C)(C)C)cc4C(=O)N4CCN(C)C(=O)C4(C)C)ccc3C)cn2)o1 [1-(5-tert-butyl-3-(2,2,4-trimethyl-3-oxopiperazine-1-carbonyl)thiophen-2-yl)-3-(4-methyl-3-(6-(5-methyl-1,3,4-oxadiazol-2-yl)pyridin-3-yl)phenyl)urea]",< 100 nM
8,Cc1nnc(-c2ccc(-c3cc(NC(=O)Nc4cc(C(C)(C)C)sc4C(=O)N4CCN(C)C(=O)C4(C)C)ccc3C)cn2)o1,< 100 nM
9,"Cc1ccc(NC(=O)Nc2cc(C(C)(C)C)sc2C(=O)N2CCNC(=O)C2(C)C)cc1-c1ccc(N2CCOCC2)cn1 [1-(5-tert-butyl-2-(2,2-dimethyl-3-oxopiperazine-1-carbonyl)thiophen-3-yl)-3-(4-methyl-3-(5-morpholinopyridin-2-yl)phenyl)urea]",< 100 nM

# The remaining lines, values ahead:
row,IC50,Structure (SMILES)
1,< 100 nM,"Cc1ccc(NC(=O)Nc2sc(C(C)(C)C)cc2C(=O)N2CCN(C)C(=O)C2(C)C)cc1-c1ccc(C(=O)N2CCOCC2)nc1 [1-(5-tert-butyl-3-(2,2,4-trimethyl-3-oxopiperazine-1-carbonyl)thiophen-2-yl)-3-(4-methyl-3-(6-(morpholine-4-carbonyl)pyridin-3-yl)phenyl)urea]"
2,< 100 nM,"CC(=O)c1ccc(-c2cc(NC(=O)Nc3sc(C(C)(C)C)cc3C(=O)N3CCNC(=O)C3(C)C)ccc2C)cn1 [1-(5-tert-butyl-3-(2,2-dimethyl-3-oxopiperazine-1-carbonyl)thiophen-2-yl)-3-(3-(6-ethanoylpyridin-3-yl)-4-methylphenyl)urea]"
3,< 100 nM,"C#Cc1cc(NC(=O)Nc2sc(C(C)(C)C)cc2C(=O)N2CCNC(=O)C2(C)C)ccc1C [1-(5-tert-butyl-3-(2,2-dimethyl-3-oxopiperazine-1-carbonyl)thiophen-2-yl)-3-(3-ethynyl-4-methylphenyl)urea]"
4,< 100 nM,"Cc1ccc(NC(=O)Nc2sc(C(C)(C)C)cc2C(=O)N2CCN(CCN(C)C)C(=O)C2(C)C)cc1-c1cccnc1 [1-(5-tert-butyl-3-(4-(2-(dimethylamino)ethyl)-2,2-dimethyl-3-oxopiperazine-1-carbonyl)thiophen-2-yl)-3-(4-methyl-3-(pyridin-3-yl)phenyl)urea]"
5,< 100 nM,"Cc1ccc(NC(=O)Nc2sc(C(C)(C)C)cc2C(=O)N2CCNC(=O)C2(C)C)cc1-c1cccc[n+]1[O-] [2-(5-(3-(5-tert-butyl-3-(2,2-dimethyl-3-oxopiperazine-1-carbonyl)thiophen-2-yl)ureido)-2-methylphenyl)pyridine 1-oxide]"
6,< 100 nM,"Cc1ccc(NC(=O)Nc2sc(C(C)(C)C)cc2C(=O)N2CCNC(=O)C2(C)C)cc1-c1ccc(OCCN(C)C)nc1 [1-(5-tert-butyl-3-(2,2-dimethyl-3-oxopiperazine-1-carbonyl)thiophen-2-yl)-3-(3-(6-(2-(dimethylamino)ethoxy)pyridin-3-yl)-4-methylphenyl)urea]"
7,< 100 nM,"COc1ccc(-c2cc(NC(=O)Nc3sc(C(C)(C)C)cc3C(=O)N3CCNC(=O)C3(C)C)ccc2C)nc1 [1-(5-tert-butyl-3-(2,2-dimethyl-3-oxopiperazine-1-carbonyl)thiophen-2-yl)-3-(3-(5-methoxypyridin-2-yl)-4-methylphenyl)urea]"
8,< 100 nM,"Cc1ccc(NC(=O)Nc2sc(C(C)(C)C)cc2C(=O)N2CCNC(=O)C2(C)C)cc1C#Cc1ccccn1 [1-(5-tert-butyl-3-(2,2-dimethyl-3-oxopiperazine-1-carbonyl)thiophen-2-yl)-3-(4-methyl-3-(pyridin-2-ylethynyl)phenyl)urea]"
9,< 100 nM,"Cc1ccc(NC(=O)Nc2sc(C(C)(C)C)cc2C(=O)N2CCNC(=O)C2(C)C)cc1-c1c(C)noc1C [1-(5-tert-butyl-3-(2,2-dimethyl-3-oxopiperazine-1-carbonyl)thiophen-2-yl)-3-(3-(3,5-dimethylisoxazol-4-yl)-4-methylphenyl)urea]"
10,< 100 nM,"Cc1ncc(NC(=O)Nc2sc(C(C)(C)C)cc2C(=O)N2CCNC(=O)C2(C)C)cc1-c1ccc(N2CCOCC2)nc1 [1-(5-tert-butyl-3-(2,2-dimethyl-3-oxopiperazine-1-carbonyl)thiophen-2-yl)-3-(2-methyl-6′-morpholino-3,3′-bipyridin-5-yl)urea]"
11,< 100 nM,"COc1ccc(-c2ccc(C)c(NC(=O)Nc3sc(C(C)(C)C)cc3C(=O)N3CCNC(=O)C3(C)C)c2)cn1 [1-(5-tert-butyl-3-(2,2-dimethyl-3-oxopiperazine-1-carbonyl)thiophen-2-yl)-3-(5-(6-methoxypyridin-3-yl)-2-methylphenyl)urea]"
12,< 100 nM,"CCc1ccc(-c2cc(NC(=O)Nc3sc(C(C)(C)C)cc3C(=O)N3CCNC(=O)C3(C)C)ccc2C)nc1 [1-(5-tert-butyl-3-(2,2-dimethyl-3-oxopiperazine-1-carbonyl)thiophen-2-yl)-3-(3-(5-ethylpyridin-2-yl)-4-methylphenyl)urea]"
13,< 100 nM,"Cc1c(NC(=O)Nc2sc(C(C)(C)C)cc2C(=O)N2CCNC(=O)C2(C)C)cccc1-c1ccc(N2CCOCC2)nc1 [1-(5-tert-butyl-3-(2,2-dimethyl-3-oxopiperazine-1-carbonyl)thiophen-2-yl)-3-(2-methyl-3-(6-morpholinopyridin-3-yl)phenyl)urea]"
